From PMC5404560, “Towards Selective Mycobacterial ClpP1P2 Inhibitors with Reduced Activity against the Human Proteasome” (Antimicrobial Agents and Chemotherapy, 2017)
≈ marks a conversion by molar mass, not a printed value. Where two headings read alike, the source gives them in different places. Marks after values point to notes of the source that are not given here.

What was measured:
[1] = biological target: T1, Proteinase K (Parengyodontium album, UniProt P06873); assay: Protease panel: Proteinase K; assay type: biochemical
T1 construct: Reaction Biology Corporation (contract testing)
T1 sequence (P06873 106-384): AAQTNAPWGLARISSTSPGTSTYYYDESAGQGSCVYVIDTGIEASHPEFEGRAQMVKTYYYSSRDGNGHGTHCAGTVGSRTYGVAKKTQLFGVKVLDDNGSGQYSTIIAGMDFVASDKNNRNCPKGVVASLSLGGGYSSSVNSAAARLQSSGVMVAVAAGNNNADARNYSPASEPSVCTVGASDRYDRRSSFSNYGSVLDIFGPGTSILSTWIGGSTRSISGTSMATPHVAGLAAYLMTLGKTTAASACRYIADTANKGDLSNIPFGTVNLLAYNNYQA
Procedure: (§3) Protease panel testing was carried out by Reaction Biology Corporation.

[2] = system: M. smegmatis ΔprcAB; assay type: cell-based
[3] = Mouse liver microsome stability; assay type: in vitro ADME; conditions: liver microsomes, read-out: MLM t1/2
Procedure: (§1) A parallel artificial-membrane permeability assay (PAMPA) and mouse liver microsome (MLM), human liver microsome (HLM), aqueous solubility, Log D, protein binding, and cytochrome P450 2D6 and 3A4 assays were carried out at Piramal Pharma Solutions.

[4] = biological target: HepG2 proteasome (Homo sapiens, UniProt P20618+P28074); assay: Cell-based proteasome CT-like peptidase inhibition assay (Proteasome-Glo)
Procedure: A cell-based CT-like peptidase assay was performed using the Proteasome-Glo cell-based assay reagent (Promega) according to the manufacturer's guidelines. Briefly, HepG2 cells (10^4 cells/well) were treated with the compounds indicated in the figures for 2 h, followed by incubation with the luminescent substrate for 10 min. Luminescence was detected with a Tecan M200 Pro plate reader.

[5] = Plasma protein binding, human; assay type: in vitro ADME; conditions: bound, read-out: Plasma protein binding in humans (%) (converted)
Procedure: as §1

[6] = biological target: T2, Plasma kallikrein (Homo sapiens, UniProt P03952); assay: Protease panel: Plasma kallikrein; assay type: biochemical; conditions: Table 6; 10-dose response, top 10 μM
T2 construct: Reaction Biology Corporation (contract testing)
T2 sequence (P03952 20-638, species assumed): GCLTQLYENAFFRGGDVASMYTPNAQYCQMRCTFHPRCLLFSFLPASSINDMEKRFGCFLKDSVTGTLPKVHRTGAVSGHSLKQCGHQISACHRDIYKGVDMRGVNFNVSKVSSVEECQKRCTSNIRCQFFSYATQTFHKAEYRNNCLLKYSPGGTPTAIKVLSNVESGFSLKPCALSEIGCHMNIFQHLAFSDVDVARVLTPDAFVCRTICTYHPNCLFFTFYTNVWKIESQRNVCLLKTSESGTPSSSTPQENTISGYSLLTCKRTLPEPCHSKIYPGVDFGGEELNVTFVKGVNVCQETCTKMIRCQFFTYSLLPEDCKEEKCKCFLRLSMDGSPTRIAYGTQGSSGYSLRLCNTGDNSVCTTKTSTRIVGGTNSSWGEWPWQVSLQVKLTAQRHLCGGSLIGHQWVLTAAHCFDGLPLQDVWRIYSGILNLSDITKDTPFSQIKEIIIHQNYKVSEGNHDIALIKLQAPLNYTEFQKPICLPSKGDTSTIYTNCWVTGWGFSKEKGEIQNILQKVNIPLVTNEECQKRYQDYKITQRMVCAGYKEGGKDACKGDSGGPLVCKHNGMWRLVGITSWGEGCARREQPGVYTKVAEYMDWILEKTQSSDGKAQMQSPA
Procedure: as §3

[7] = system: M. tuberculosis; assay: Bactericidal activity (MBC99.9); assay type: cell-based; conditions: Mycobacterium tuberculosis; concentration required to kill 99.9% of the bacterial population
[8] = system: Mycobacterium bovis BCG; assay: microbe, parasite or virus in culture; assay type: cell-based; conditions: Mycobacterium tuberculosis variant bovis BCG, read-out: MIC50 for Mycobacterium bovis BCG
[9] = biological target: T3, CYP450 3A4 (Homo sapiens, UniProt P08684); assay: Recombinant cytochrome P450 enzyme assay, 3A4; assay type: in vitro ADME; conditions: highest concentration tested 10 μM
T3 construct: Piramal Pharma Solutions (contract laboratory)
T3 sequence (P08684 whole entry): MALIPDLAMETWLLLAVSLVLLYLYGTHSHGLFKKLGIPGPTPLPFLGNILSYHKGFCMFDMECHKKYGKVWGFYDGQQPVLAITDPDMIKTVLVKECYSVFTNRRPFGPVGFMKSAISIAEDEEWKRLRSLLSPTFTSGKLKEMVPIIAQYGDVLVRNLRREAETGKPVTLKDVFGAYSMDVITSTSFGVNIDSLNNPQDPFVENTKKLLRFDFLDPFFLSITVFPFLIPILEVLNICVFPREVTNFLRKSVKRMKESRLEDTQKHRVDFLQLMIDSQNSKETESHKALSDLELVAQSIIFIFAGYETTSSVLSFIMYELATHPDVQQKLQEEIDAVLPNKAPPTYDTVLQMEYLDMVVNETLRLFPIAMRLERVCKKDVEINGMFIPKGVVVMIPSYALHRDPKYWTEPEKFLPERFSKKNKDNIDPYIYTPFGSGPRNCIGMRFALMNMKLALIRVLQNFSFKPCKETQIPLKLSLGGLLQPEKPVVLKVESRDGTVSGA
Procedure: as §1

[10] = system: panel of 62 proteases; assay: Protease selectivity panel, overall; assay type: biochemical
Procedure: as §3

[11] = Intravenous/oral pharmacokinetics and tissue distribution in mice; assay type: in vivo; conditions: for Vd: 10 mg/kg
Procedure: Female ICR mice (aged ∼6 to ∼8 weeks; 3 animals per time point) were used for all studies. Studies were performed as per approved internal protocols for animal care and use. Doses were administered as clear solutions in 50% polyethylene glycol 400 (PEG400) plus […] (D5W). Animals were sacrificed by overdose of CO2, and blood was collected through cardiac puncture at 5 min (10 min per os [p.o.]), 30 min, and 1, 2, 4, 8, 16, and 24 h after administration in tubes containing K3 EDTA as an anticoagulant. The samples were centrifuged, and the plasma was separated and stored at −70°C until analysis. Plasma samples were processed and analyzed by LC-tandem MS. Pharmacokinetic parameters were estimated by noncompartmental methods using WinNonlin (version 5.2; Pharsight, CA).

[12] = Human liver microsome stability; assay type: in vitro ADME; conditions: liver microsomes, read-out: HLM t1/2
Procedure: as §1

[13] = biological target: ClpP1P2 (Mycolicibacterium smegmatis, UniProt A0R197+A0R198); assay: ClpP1P2 inhibition whole-cell RFP-SsrA reporter assay
Sequence of ClpP1P2 (A0R198 4-203): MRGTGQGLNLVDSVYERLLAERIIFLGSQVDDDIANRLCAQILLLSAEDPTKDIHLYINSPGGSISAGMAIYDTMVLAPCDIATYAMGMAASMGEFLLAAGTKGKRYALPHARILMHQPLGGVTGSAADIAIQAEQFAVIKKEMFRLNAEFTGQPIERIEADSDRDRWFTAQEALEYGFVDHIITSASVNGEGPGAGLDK
Sequence of ClpP1P2 (A0R197 17-218): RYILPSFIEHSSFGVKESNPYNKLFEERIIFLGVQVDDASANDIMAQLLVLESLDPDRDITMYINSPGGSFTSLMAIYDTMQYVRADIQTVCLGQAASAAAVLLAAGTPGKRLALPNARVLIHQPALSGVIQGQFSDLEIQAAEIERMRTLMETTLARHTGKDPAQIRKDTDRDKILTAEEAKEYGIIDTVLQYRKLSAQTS

[14] = Plasma protein binding, mouse; assay type: in vitro ADME; conditions: bound, read-out: Plasma protein binding in mice (%) (converted)
Procedure: as §1

[15] = Log D (octanol/PBS); assay type: physicochemical; conditions: pH 7.4, read-out: Log D (measured at pH 7.4)
Procedure: as §1

[16] = system: M. tuberculosis H37Rv; assay: microbe, parasite or virus in culture; assay type: cell-based
[17] = Thermodynamic aqueous solubility; assay type: physicochemical; conditions: thermodynamic from solid
Procedure: as §1

[18] = biological target: Chymase (Homo sapiens, UniProt P23946); assay: Protease panel: Chymase; assay type: biochemical; conditions: Table 6; 10-dose response, top 10 μM
Sequence of Chymase (P23946 22-247, species assumed): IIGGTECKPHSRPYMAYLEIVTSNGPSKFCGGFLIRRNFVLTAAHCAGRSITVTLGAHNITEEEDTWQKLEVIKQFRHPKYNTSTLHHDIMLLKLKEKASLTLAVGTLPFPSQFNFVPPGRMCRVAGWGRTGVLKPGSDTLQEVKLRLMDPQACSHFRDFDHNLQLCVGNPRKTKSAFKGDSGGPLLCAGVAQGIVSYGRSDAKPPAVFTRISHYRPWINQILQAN
Procedure: as §3

[19] = biological target: T4, CYP450 2D6 (Homo sapiens, UniProt P10635); assay: Recombinant cytochrome P450 enzyme assay, 2D6; assay type: in vitro ADME; conditions: highest concentration tested 10 μM
T4 construct: Piramal Pharma Solutions (contract laboratory)
T4 sequence (P10635 whole entry): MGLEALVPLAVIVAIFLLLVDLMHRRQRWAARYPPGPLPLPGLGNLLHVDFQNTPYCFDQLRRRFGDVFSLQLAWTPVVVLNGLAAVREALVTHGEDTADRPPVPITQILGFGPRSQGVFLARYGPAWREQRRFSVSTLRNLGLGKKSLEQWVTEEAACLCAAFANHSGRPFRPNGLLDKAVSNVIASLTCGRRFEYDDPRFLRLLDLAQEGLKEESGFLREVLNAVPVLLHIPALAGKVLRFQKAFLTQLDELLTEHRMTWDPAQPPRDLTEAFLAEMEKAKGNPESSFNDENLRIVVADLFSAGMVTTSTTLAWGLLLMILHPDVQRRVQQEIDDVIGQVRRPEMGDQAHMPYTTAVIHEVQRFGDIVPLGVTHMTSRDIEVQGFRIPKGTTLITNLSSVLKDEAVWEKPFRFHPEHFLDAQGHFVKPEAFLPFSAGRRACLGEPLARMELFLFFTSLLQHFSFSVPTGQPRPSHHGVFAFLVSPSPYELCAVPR
Procedure: as §1

[20] = biological target: Kallikrein 1 (Homo sapiens, UniProt P06870); assay: Protease panel: Kallikrein 1; assay type: biochemical; conditions: Table 6; 10-dose response, top 10 μM
Sequence of Kallikrein 1 (P06870 25-262, species assumed): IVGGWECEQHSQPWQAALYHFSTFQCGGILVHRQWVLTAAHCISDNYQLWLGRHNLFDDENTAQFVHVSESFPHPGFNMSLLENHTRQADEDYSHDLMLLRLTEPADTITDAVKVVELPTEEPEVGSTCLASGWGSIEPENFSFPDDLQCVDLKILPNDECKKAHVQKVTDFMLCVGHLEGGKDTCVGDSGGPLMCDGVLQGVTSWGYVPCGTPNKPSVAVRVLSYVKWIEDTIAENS
Procedure: as §3

[21] = biological target: Kallikrein 7 (Homo sapiens, UniProt P49862); assay: Protease panel: Kallikrein 7; assay type: biochemical; conditions: Table 6; 10-dose response, top 10 μM
Sequence of Kallikrein 7 (P49862 30-253, species assumed): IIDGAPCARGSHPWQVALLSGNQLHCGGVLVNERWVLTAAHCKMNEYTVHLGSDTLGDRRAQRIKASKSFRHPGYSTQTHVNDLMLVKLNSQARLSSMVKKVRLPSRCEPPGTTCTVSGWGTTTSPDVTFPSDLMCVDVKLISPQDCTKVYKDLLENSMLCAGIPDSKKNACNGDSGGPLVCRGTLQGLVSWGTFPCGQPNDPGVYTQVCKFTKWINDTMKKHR
Procedure: as §3

[22] = system: HepG2 cells; assay: MTS cytotoxicity assay, HepG2; assay type: cell-based, human; conditions: fold higher
Procedure: (§2) The MTS (Promega) reduction assay was used according to manufacturer's guidelines to assess Vero (ATCC […]) and HepG2 (ATCC HB-8065) cell viability. […] Carbonyl cyanide m-chlorophenylhydrazone (CCCP) was used as a cytotoxic positive control. Cytotoxicity was determined twice in independent experiments.

[23] = MTS cytotoxicity assay, HepG2; assay type: cell-based, human; conditions: human; MTS assay; read-out: GI50, HepG2 cells
Procedure: as §2

O=C(N[C@@H](Cc1ccccn1)C(=O)N[C@@H](CCc1ccccc1)B(O)O)c1cnccn1 [Compound 58, ((R)-3-phenyl-1-((S)-2-(pyrazine-2-carboxamido)-3-(pyridin-2-yl)propanamido)propyl)boronic acid]
IC50 ([1]; Table 6, 10-dose response, top 10 μM): 0.35 µM
IC50 ([1]; supplement panel table, test and control compound): 0.352 µM
M. smegmatis ΔprcAB MIC50 ([2]; 24 h exposure, OD600, concentration inhibiting 50% of growth): 2.7 ± 0.5 µM
improvement of bacterial-growth inhibition compared to compound 1 ([2]; M. smegmatis ΔprcAB): over 2 fold
half-life [3]: ~8 min
IC50 [4]: 0.367 ± 0.103 µM
fraction unbound [5]: 0.109
IC50 [6]: 4.4 µM
MBC [7]: 50 µM (≈ 21.7 µg/mL)
MIC50 [8]: 1.5 µM (≈ 0.65 µg/mL)
IC50 [9]: > 10 µM
share of panel of 62 proteases inhibited with a submicromolar IC50 ([10]; 2/62): 3%
share of panel of 62 proteases inhibited with an IC50 between 1 to 10 μM ([10]; 5/62): 8%
share of panel of 62 proteases against which active (<10 μM) ([10]; top concentration tested 10 μM): 11%
abnormal clinical signs for up to 24 h after injection ([11]; 10 mg/kg i.v.): No abnormal clinical signs were observed
acute side effects during tail vein injection ([11]; 10 mg/kg i.v.): No acute side effects were observed
time concentrations remained above anti-M. tuberculosis MIC50 ([11]; 10 mg/kg i.v.): approximately 4 h
maximum concentration ([11]; 10 mg/kg i.v., plasma): 32.7 µM
AUC0–t(last) in brain ([11]; 100 mg/kg p.o., brain): 286 ng·h/g
AUC0–t(last) in lung ([11]; 100 mg/kg p.o., lung): 16,253 ng · h/g
C0 ([11]; female, ICR, mouse, iv, 10 mg/kg i.v., plasma, read-out: C0 (maximum concentration)): 14200 ng/mL
AUC(0-inf) ([11]; female, ICR, mouse, plasma, iv, 10 mg/kg i.v., read-out: AUC0-inf): 21100 ng·h/mL
AUC(0-t) ([11]; female, ICR, mouse, plasma, iv, 10 mg/kg i.v., read-out: AUC0-t(last)): 20800 ng·h/mL
clearance ([11]; female, ICR, mouse, plasma, iv, 10 mg/kg i.v., read-out: CL (systemic plasma clearance) (converted)): 8.33 mL/min/kg
half-life ([11]; female, ICR, mouse, plasma, iv, 10 mg/kg i.v., read-out: T½ (elimination half-life) (converted)): 222 min
Vd ([11]; female, ICR, mouse, plasma, iv, 10 mg/kg i.v., read-out: Vss): 2.1 L/kg
Vd ([11]; female, ICR, mouse, plasma, iv, 10 mg/kg i.v., read-out: Vz): 2.5 L/kg
Tmax ([11]; female, ICR, mouse, plasma, lung, brain, po, 100 mg/kg p.o., read-out: Tmax (converted)): 10 min
bioavailability ([11]; female, ICR, mouse, plasma, oral, 10 mg/kg p.o. vs 10 mg/kg i.v., read-out: F (absolute oral bioavailability)): 14%
AUC(0-inf) ([11]; female, ICR, mouse, plasma, po, 10 mg/kg p.o., read-out: AUC0-inf): 2870 ng·h/mL
AUC(0-t) ([11]; female, ICR, mouse, plasma, po, 10 mg/kg p.o., read-out: AUC0-t(last)): 2840 ng·h/mL
Tmax ([11]; female, ICR, mouse, plasma, po, 10 mg/kg p.o., read-out: Tmax (converted)): 30 min
half-life ([11]; female, ICR, mouse, plasma, po, 10 mg/kg p.o., read-out: T½ (converted)): 234 min
Cmax ([11]; female, ICR, mouse, po, 10 mg/kg p.o., plasma, read-out: Cmax): 798 ng/mL
AUC(0-inf) ([11]; female, ICR, mouse, po, 100 mg/kg p.o., brain, Fig. 10B, read-out: AUC0-inf, Brain): 378 ng·h/mL
AUC(0-t) ([11]; female, ICR, mouse, po, 100 mg/kg p.o., brain, Fig. 10B, read-out: AUC0-t(last), Brain): 286 ng·h/mL
Cmax ([11]; female, ICR, mouse, po, 100 mg/kg p.o., brain, read-out: Cmax in brain): 93 ng/g
Tmax ([11]; female, ICR, mouse, po, 100 mg/kg p.o., brain, read-out: Tmax, Brain): 12 min
half-life ([11]; female, ICR, mouse, po, 100 mg/kg p.o., brain, read-out: T½, Brain (converted)): 12 min
AUC(0-inf) ([11]; female, ICR, mouse, po, 100 mg/kg p.o., lung, Fig. 10B, read-out: AUC0-inf, Lung): 17000 ng·h/mL
AUC(0-t) ([11]; female, ICR, mouse, po, 100 mg/kg p.o., lung, Fig. 10B, read-out: AUC0-t(last), Lung): 16300 ng·h/mL
Cmax ([11]; female, ICR, mouse, po, 100 mg/kg p.o., lung, read-out: Cmax in lung): 3370 ng/g
Tmax ([11]; female, ICR, mouse, po, 100 mg/kg p.o., lung, read-out: Tmax, Lung): 12 min
half-life ([11]; female, ICR, mouse, po, 100 mg/kg p.o., lung, read-out: T½, Lung (converted)): 18 min
AUC(0-inf) ([11]; female, ICR, mouse, po, 100 mg/kg p.o., plasma, read-out: AUC0-inf, Plasma): 23600 ng·h/mL
AUC(0-t) ([11]; female, ICR, mouse, po, 100 mg/kg p.o., plasma, read-out: AUC0-t(last), Plasma): 22800 ng·h/mL
Cmax ([11]; female, ICR, mouse, po, 100 mg/kg p.o., plasma, read-out: Cmax, Plasma): 6910 ng/mL
Tmax ([11]; female, ICR, mouse, po, 100 mg/kg p.o., plasma, read-out: Tmax, Plasma): 12 min
half-life ([11]; female, ICR, mouse, po, 100 mg/kg p.o., plasma, read-out: T½, Plasma (converted)): 12 min
Dose linearity ([11]; p.o., plasma Cmax and AUC0–inf at 10 and 100 mg/kg): very good
half-life [12]: > 24 min
IC50 ([13]; M. smegmatis ΔprcAB IC50 (μM) for ClpP1P2, whole-cell RFP-SsrA reporter, 3 h incubation): 1.5 ± 0.5 µM
improvement of ClpP1P2 potency compared to compound 1 ([13]; M. smegmatis ΔprcAB reporter): 4 fold
fraction unbound [14]: 0.0954
logD [15]: 2.96
MIC50 (μM) against M. tuberculosis H37Rv ([16]; 5 days): 2.5 ± 1.3^b μM
MIC90 (μM) against M. tuberculosis H37Rv ([16]; 5 days): 6 ± 2.8 µM (≈ 2.6 µg/mL)
MIC90 concentration relative to MIC50 (fold higher) ([16]; H37Rv): < 3 fold
MIC50 ([16]; Mycobacterium tuberculosis, H37RV, 120 h, 5 days, read-out: MIC50 (μM) against M. tuberculosis H37Rv): 2.5 µM
MIC90 ([16]; Mycobacterium tuberculosis, H37RV, 120 h, 5 days, read-out: MIC90 (μM) against M. tuberculosis H37Rv): 6 µM (≈ 2.6 µg/mL)
MIC50 ([16]; Mycobacterium tuberculosis, H37RV, read-out: MIC50-TB): 1.08 µg/mL
solubility ([17]; aqueous medium at pH 7.4, aqueous buffer, pH 7.4, text, read-out: aqueous solubility): > 400 µg/mL
solubility ([17]; aqueous solution at pH 4, aqueous buffer, thermodynamic, pH 4, read-out: Aq solubility (μg/ml) at pH 4): 422 µg/mL (≈ 973 µM)
solubility ([17]; aqueous solution at pH 7.4, aqueous buffer, thermodynamic, pH 7.4, read-out: Aq solubility (μg/ml) at pH 7.4): 450 µg/mL (≈ 1040 µM)
IC50 [18]: 5.75 µM
IC50 [19]: > 10 µM
IC50 [20]: 6.03 µM
IC50 [21]: 9.31 µM
GI50 relative to M. tuberculosis growth-inhibitory potency, HepG2 [22]: 200 fold
GI50 [23]: 500 µM
